{"source": "patent US20210156865A1", "about": "“METHODS FOR ASSESSING EFFICACY OF MALT1 INHIBITORS USING AN NF-KB TRANSLOCATION ASSAY” (Janssen Pharmaceutica NV, priority 2019, published 2021)", "key": {"[1]": {"test_system": "purified T-cells and PBMCs from NHL patients", "assay": "IL2 expression in purified T-cells and PBMCs from NHL patients", "format": "cell-based, human", "conditions": "T-cells and PBMC of NHL blood; 24 hours; CD3 and CD28 six hours", "procedure": "The effect of a MALT inhibitor was analyzed utilizing gene expression signatures from purified T-cells and PBMCs from Non-Hodgkin's lymphoma patients. Peripheral blood was collected from five NHL patients, and the peripheral blood was allowed to stand overnight. Then, the peripheral blood was treated for 24 hours with a MALT inhibitor or DMSO control. The blood was then stimulated with monoclonal antibodies against CD3 and CD28 for six hours. Prior to stimulation and following stimulation, PBMC were purified from the treated blood using a ficoll density gradient and T-cells were purified using CD3 Beads (Miltenyi) using the manufacturers protocol. Purified cells were lysed in RLTplus (Qiagen) and RNA was extracted from the purified cells using an AllPrepkit (Qiagen). Gene expression was measured using 100 ng of RNA in the Pan-Cancer Immune Profiling kit (NanoString) according to the manufacturer's instructions."}, "CD4+ and CD8+ T cells": {"test_system": "CD4+ and CD8+ T cells", "assay": "CD69 expression on T cells from peripheral whole blood, imaging flow cytometry", "format": "cell-based, human", "conditions": "200 μM overnight, anti-CD3 and anti-CD28 6 hours", "procedure": "(§1) The solution was mixed by pipetting with a 1 mL pipette. The plates were incubated in a humidified incubator at 37° C. with 5% CO2 for an additional 6 hours.\nThe next day, blood was treated with anti-CD3 and anti-CD28 stimulatory antibodies for 6 hours as described in Example 1 or left untreated. After treatment with the stimulatory antibodies, the red blood cells were lysed using multi-species lysis buffer, and the white blood cells were stained with anti-CD4 and anti-CD8 antibodies to label T cells and an anti-CD69 antibody to measure early T cell activation. Frequency of CD69-positive T cells (CD4+ and CD8+) was measured by IFC."}, "[2]": {"test_system": "NF-κB (p105/p50) nuclear translocation in CD4 and CD8 positive T cells", "assay": "NF-kB nuclear translocation in T cells from NHL peripheral whole blood", "format": "cell-based, human", "procedure": "as §1\nThe staining solution was prepared by diluting Hoechst 33342 (Thermo Scientific, cat. #62249) to 10 nM and the p50 antibody (Clone 2J10D7; Novus, cat. #NB100-56583C) at 50 μg/mL in FACS buffer. The cells were incubated in the staining solution for 30 minutes at room temperature in the dark. The cells were washed by centrifugation at 1350 rpm for 5 minutes at room temperature, the supernatants were discarded, and the pellets were reconstituted in FACS buffer. The wash step was repeated twice, and the cells were resuspended in PBS at a final concentration of 5-20×10^6 cell/mL in 25 μL of PBS.\nThe samples were imaged on an AMNIS® […]® X Mark II imaging flow cytometer (MilliporeSigma, Burlington, Mass.) immediately, using 60× magnification, and the data was analyzed in IDEAS software using an internalization module, e.g., to evaluate frequency of CD4+ and CD8+ T cells or CLL cells with nuclear enrichment of p50.\nThe next day, the mixture samples were treated with anti-CD3 and anti-CD28 stimulatory antibodies following a procedure as that described in Example 1. […] Samples were analyzed on ImageStreamX to evaluate NF-κB nuclear localization in the CD4 and the CD8 positive T cells."}, "[3]": {"test_system": "peripheral blood of CLL patients", "assay": "Gene expression in whole blood of CLL patients (NanoString Pan-Cancer Immune Profiling)", "format": "cell-based, human", "conditions": "200 μM 24 hours, anti-CD3 and anti-CD28 four hours", "procedure": "(§2) Peripheral blood was collected from three NHL and two CLL patients. […] Prior to stimulation and following stimulation, the treated blood was transferred into a PAXgene tube (Qiagen; Hilden, Germany) and RNA was extracted using the PAXgene RNA kit. Gene expression was measured using 100 ng of RNA extracted from the whole blood in the Pan-Cancer Immune Profiling kit (NanoString; Seattle, Wash.) according to the manufacturer's instructions."}, "[4]": {"test_system": "peripheral blood of NHL patients", "assay": "Gene expression in whole blood of NHL patients (NanoString Pan-Cancer Immune Profiling)", "format": "cell-based, human", "conditions": "200 μM 24 hours, anti-CD3 and anti-CD28 four hours", "procedure": "as §2"}, "[5]": {"test_system": "whole blood of NHL patients", "assay": "Gene expression signatures in NHL whole blood treated with lymphocyte-stimulating agents", "format": "cell-based, human", "conditions": "PMA-stimulated samples, 100 μM", "procedure": "To obtain a robust gene signature of MALT1 inhibitor activity, whole blood of nine NHL patients which was stimulated with CD3/CD28, PMA/ionomycin, or PBS as a control was tested. Briefly, NHL donor blood was collected in 10 mL sodium heparin tubes and transported in refrigerated state (cold packs). […] Then, aliquots were stimulated with CD3 and CD28 antibodies (1 ug/ml each), PMA (20 ng/ml) and Ionomycin (1 μg/mL), or unstimulated (PBS) for four hours. Following stimulation, the treated blood was transferred into a PAXgene tube (Qiagen; Hilden, Germany) and RNA was extracted using the PAXgene RNA kit.\nGene expression was measured using 100 ng of RNA extracted from the whole blood in the Pan-Cancer Immune Profiling kit (NanoString; Seattle, Wash.) according to the manufacturer's instructions. Gene expression was normalized across samples using NanoString nSolver software. […] Briefly, log 2-scaled, normalized NanoString counts were fit to a linear model (which incorporated the patient of origin) and moderated t-statistics, along with the associated Benjamini-Hochberg (BH) corrected p-values, were computed by empirical Bayes moderation of the standard errors towards a common value."}, "[6]": {"test_system": "proteases, caspases, protein kinases, and G-protein-coupled receptors", "assay": "Binding inhibition panel at single dose", "parameters": "dose or concentration left out as unconfirmed"}, "[7]": {"test_system": "purified T-cells and PBMCs from NHL patients", "assay": "Gene expression in T-cells and PBMCs purified from NHL blood without stimulation", "format": "cell-based, human", "conditions": "no stimulation, 24 hours", "procedure": "Peripheral blood was collected from five NHL patients, and the peripheral blood was allowed to stand overnight. Then, the peripheral blood was treated for 24 hours with a MALT inhibitor or DMSO control. PBMCs were purified from the unstimulated blood using a ficoll density gradient and T-cells were purified using CD3 Beads (Miltenyi) using the manufacturers protocol. Purified cells were lysed in RLTplus (Qiagen) and RNA was extracted from the purified cells using an AllPrep kit (Qiagen). Gene expression was measured using 100 ng of RNA in the Pan-Cancer Immune Profiling kit (NanoString) according to the manufacturer's instructions. Gene expression signatures were compared between the MALT inhibitor treated and DMSO treated samples."}, "Oral bioavailability": {"assay": "Oral bioavailability", "conditions": "in vivo"}, "[8]": {"test_system": "CD79b-mutant DLBCL and ibrutinib-resistant DLBCL cell lines", "assay": "Growth of DLBCL cell lines in vitro", "format": "cell-based", "conditions": "ibrutinib-resistant with BTK C481S or CARD11 mutations"}, "[9]": {"test_system": "NF-kB nuclear localization in B (CLL) cells", "assay": "NF-κB nuclear translocation in CLL B cells, overnight incubation, 6 h anti-IgM", "format": "cell-based, human", "conditions": "CLL PBMC; overnight compound; anti-IgM 6 hours", "procedure": "Cells were then treated with anti-IgM or left untreated for 6 hours. After stimulation, PBMC were fixed using CytoFix buffer and permeabilized using 0.1% Triton X-100 solution. Cells were then stained with anti-CD19 to label B (CLL) cells, anti-CD4 and anti-CD8 to label T cells, Hoechst 33342 to label nuclei, and anti-p105/p50 to label NF-kB subunit. Samples were analyzed on ImageStreamX to evaluate NF-kB nuclear localization in B cells or T cells. […] Statistical significance was determined using Student's t-test in Microsoft Excel."}, "[10]": {"test_system": "NF-κB (p105/p50) nuclear translocation in CD19-positive B (CLL) cells", "assay": "NF-κB nuclear translocation in B cells from CLL PBMCs, 30 min anti-IgM", "format": "cell-based, human", "conditions": "6 hours compound, anti-IgM 30 minutes", "procedure": "Alternatively, B cells can also be activated by beads coated with anti-IgM antibody. After the stimulation, PBMCs were fixed using CytoFix buffer and permeabilized using 0.1% Triton X-100 solution. Cells were then stained with anti-CD19 to label B (CLL) cells, Hoechst 33342 to label nuclei, and anti-p105/p50 to label NF-κB subunit. Samples were analyzed on ImageStreamX to evaluate NF-κB nuclear localization in the CD19-positive cells. […] Statistical significance was determined using Student's t-test in Microsoft Excel."}, "[11]": {"test_system": "CD79b and CARD11-mutant ABC-DLBCL xenograft models", "assay": "ABC-DLBCL xenograft models in vivo"}, "[12]": {"test_system": "NF-κB proteins (p50 and RelB) in CLL cells", "conditions": "CLL cells treated in vitro; cited from earlier work"}, "[13]": {"test_system": "NF-κB target genes (CCND2, BCL2A, CCL3, CCL4, RGS1, and TNF) in CLL cells", "conditions": "CLL cells treated in vitro; cited from earlier work"}}}
{"smiles": "O=C(Nc1ccnc(C(F)(F)F)c1)c1cnn(-c2cccc3c(=O)[nH]ccc23)c1C(F)(F)F", "note": "[Compound A, 1-(1-oxo-1,2 dihydroisoquinolin-5-yl)-5 (trifluoromethyl)-N-[2 (trifluoromethyl)pyridin-4 yl]-1H-pyrazole-4 carboxamide]", "values": [{"measurement": "stimulation induced upregulation of IL2", "setting": "[1]", "value": "repressed"}, {"measurement": "surface expression of CD69 on T cells", "setting": "CD4+ and CD8+ T cells; NHL blood", "value": "significantly inhibited"}, {"measurement": "surface expression of CD69 on CD4+ and CD8+ T cells", "setting": "CD4+ and CD8+ T cells; normal blood", "value": "not affected"}, {"measurement": "NFκB nuclear translocation in T cells", "setting": "[2]; CD3/CD28 stimulation, dosage dependent", "value": "completely blocked"}, {"measurement": "IC50", "setting": "[2]; Homo sapiens, CD8 positive, overnight, CD3/CD28 stimulation 6 h, read-out: IC50, NFκB nuclear translocation in T cells", "value": "~9.5", "unit": "µM"}, {"measurement": "stimulation induced upregulation of CXCL10", "setting": "[3]", "value": "repressed"}, {"measurement": "stimulation induced upregulation of CXCL10", "setting": "[4]", "value": "repressed"}, {"measurement": "genes significantly upregulated", "setting": "[5]", "value": "no genes were significantly upregulated"}, {"measurement": "gene expression at the specified cutoff levels", "setting": "[5]; genes ICOS, POU2F2, CCR4, CTLA4", "value": "downregulated"}, {"measurement": "binding inhibition of proteases, caspases, protein kinases, and G-protein-coupled receptors", "setting": "[6]", "value": "did not show significant binding inhibition"}, {"measurement": "APOE expression", "setting": "[7]; purified PBMCs", "value": "repressed"}, {"measurement": "PYCARD expression", "setting": "[7]; purified PBMCs", "value": "repressed"}, {"measurement": "NF-κB2 expression", "setting": "[7]; purified T-cells", "value": "repressed"}, {"measurement": "TNFSF10 expression", "setting": "[7]; purified T-cells", "value": "repressed"}, {"measurement": "oral bioavailability", "setting": "Oral bioavailability", "value": "orally bioavailable"}, {"measurement": "growth of DLBCL cell lines", "setting": "[8]", "value": "inhibit growth"}, {"measurement": "NF-κB nuclear translocation in B cells", "setting": "[9]", "value": "inhibited"}, {"measurement": "NF-κB nuclear translocation in activated B cells", "setting": "[10]", "value": "inhibited"}, {"measurement": "efficacy in xenograft models", "setting": "[11]", "value": "shown efficacy"}]}
{"smiles": "COCCOc1nc(-c2ccc(Cl)c(Cl)c2)n(-c2ccc(NC(=O)CCl)cc2)n1", "note": "[MI-2]", "values": [{"measurement": "nuclear translocation of NF-κB proteins", "setting": "[12]", "value": "suppress"}, {"measurement": "expression of six known NF-κB target genes", "setting": "[13]", "value": "significantly reduce"}]}
